Data: patent US8993595B2, “Macrocyclic serine protease inhibitors” (priority 2009, dated 2015)

Legend:
[1] = biological target: NS3-4A (Con1) (Hepatitis C virus genotype 1b, UniProt Q9WMX2); assay: Binding kinetics by surface plasmon resonance; parameters: species or system HCV
Description: The binding kinetics of compound 52 to NS3-4A (Con1) was also determined using surface plasmon resonance.

[2] = tested on: JFH-1 (genotype 2a) virus in HPC cells; assay: HCV in vitro infection core ELISA assay; assay type: cell-based
Description: HPC cells were infected with JFH-1 (genotype 2a) and treated with the compound for 4 days (virus inoculum was removed after 16 hrs). Remaining virus was measured by an anti-HCV core ELISA. Compound cytotoxicity was also measured in parallel using a colorimetric proliferation assay as described in Example 5.
The HCV in vitro infection core ELISA assay measures the ability of a test compound to inhibit replication of an infectious HCV (strain JFH-1; genotype 2a) in cell culture. […] We have developed this model for determining the efficacy of antiviral compounds against an infectious virus in vitro using HCV producing cells (HPC), a proprietary Huh-7-derived cell sublineage capable of propagating the JFH-1 HCV virus. The readout of the assay is quantification of HCV core protein by ELISA 5 days post infection with JFH-1 virus and treatment with a test compound. […]
OPD solution was prepared using 1 OPD tablet+12 mL citrate/phosphate buffer (16 mM citric acid, 27 mM Na2HPO4) plus 5 μL 30% H2O2 per plate. […] The reaction was stopped with 100 μL/well of 2N H2SO4, and absorbance measured at A490 nm in a Victor^3 V 1420 multilabel counter (Perkin Elmer). The EC50 values for each compound were calculated from dose response curves from the resulting best-fit equations determined by Microsoft Excel and XLfit 4.1 software. […]

[3] = clinical; details: human, in vivo; for Cmax / Tmax: 400 mg per day; for half-life: T1/2, 400 mg per day
[4] = in vitro; assay type: cell-based; details: human; GS4.1 cells, Cell Titer 96 AQueous One Solution
Description: For cytotoxicity evaluation, GS4.1 cells were treated with compounds as described above and cellular viability was monitored using the Cell Titer 96 AQueous One Solution Cell Proliferation Assay (Promega). CC50 values were determined from the % cytotoxicity versus concentration data with Tecan Magellan software as described above.

[5] = in vivo; details: for Mean concentration, Heart / Mean concentration, Liver / Mean concentration, Plasma / Kp: single 2 mg/kg oral dose; for AUC(0-inf) / C24 h / F / AUC(0-t) / Vd / clearance / half-life / Cmax / Tmax / Kp: 2 mg/kg
Description: Male mice (3/time point) and monkeys (3/dose group) were given a single IV or PO dose of compound 52 in a PEG-based vehicle. The compound was quantified in liver (LLOQ=25 ng/g) and heart (LLOQ=50 ng/g) tissue (mice only) and in plasma samples (LLOQ=5 ng/mL) after liquid-liquid extraction by HPLC-MS/MS. Six healthy volunteers were given a single 200 mg dose of the compound using the selected tablet formulation and plasma concentrations were similarly determined (LLOQ=2 ng/mL). PK parameters were calculated using WinNonlin.

Chain of NS3-4A (Con1) (Q9WMX2 1027-1657): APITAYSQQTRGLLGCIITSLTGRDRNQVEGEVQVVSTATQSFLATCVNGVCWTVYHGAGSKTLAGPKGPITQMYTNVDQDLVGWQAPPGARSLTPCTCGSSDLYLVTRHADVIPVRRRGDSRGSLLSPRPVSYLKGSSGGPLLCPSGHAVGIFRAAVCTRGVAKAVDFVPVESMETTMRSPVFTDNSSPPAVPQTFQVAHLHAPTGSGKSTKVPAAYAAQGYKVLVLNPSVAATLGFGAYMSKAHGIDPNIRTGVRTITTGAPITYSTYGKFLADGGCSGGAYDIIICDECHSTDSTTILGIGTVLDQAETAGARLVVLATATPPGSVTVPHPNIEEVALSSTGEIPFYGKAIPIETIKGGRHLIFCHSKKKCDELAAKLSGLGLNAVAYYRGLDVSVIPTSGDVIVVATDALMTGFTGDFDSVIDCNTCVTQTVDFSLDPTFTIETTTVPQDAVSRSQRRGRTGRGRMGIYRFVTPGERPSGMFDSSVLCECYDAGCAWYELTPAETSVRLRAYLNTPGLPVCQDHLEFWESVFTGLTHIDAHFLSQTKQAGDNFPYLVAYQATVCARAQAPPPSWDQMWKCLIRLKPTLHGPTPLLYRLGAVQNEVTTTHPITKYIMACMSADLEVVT
Chain of NS3-4A (Con1) (Q9WMX2 1658-1711): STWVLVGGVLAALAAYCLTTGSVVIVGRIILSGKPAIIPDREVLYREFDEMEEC

`COc1ccc2c(O[C@H]3CCN4C(=O)N(C)CCCC/C=C\[C@@H]5C[C@@]5(C(=O)NS(=O)(=O)C5(C)CC5)NC(=O)[C@@H]4C3)cc(-c3nc(C(F)(F)F)cs3)nc2c1C` [Compound 52, 1-methyl-cyclopropanesulfonic acid{(Z)-(1S,4R,6S,18S)-18-[7-methoxy-8-methyl-2-(4-trifluoromethyl-thiazol-2-yl)-quinolin-4-yloxy]-13-methyl-2,14-dioxo-3,13,15-triaza-tricyclo[13.4.0.0*4,6*]nonadec-7-ene-4-carbonyl}amide] gave a kon ([1]; read-out: association rate) of 27000 M⁻¹ s⁻¹, a koff ([1]; read-out: dissociation rate) of 2.1e-05 s⁻¹ and a Kd ([1]; read-out: equilibrium constant) of 0.8 nM. For the same molecule, the “Selectivity Index” value ([2]; 2a virus) was 2,568, the EC50 ([2]; Hepatitis C virus, 96 h, 2a virus (JFH-1), HPC cells, 4 days, anti-HCV core ELISA) was 4.4 ± 0.6 nM and the Cmax ([3]; PK Day 1) was 1150 ± 381 ng/mL. The Cmax ([3]; PK Day 3) was 1370 ± 345 ng/mL, the half-life ([3]; PK Day 1) was 12 ± 2 h and the half-life ([3]; PK Day 3) was 31 ± 8 h. The Tmax ([3]; PK Day 1) was 3 h, the Tmax ([3]; PK Day 3) was 3.5 h and the CC50 [4] was 10000 to 75000 nM. The “Mean concentration, Heart” value ([5]; 2 hr) was 144 ng/g, the “Mean concentration, Liver” value ([5]; 2 hr) was 4410 ng/g and the “Mean concentration, Plasma” value ([5]; 2 hr) was 174 ng/mL. For the same molecule, the “Mean concentration, Heart” value ([5]; 6 hr) was 93.0 ng/g, the “Mean concentration, Liver” value ([5]; 6 hr) was 3540 ng/g and the “Mean concentration, Plasma” value ([5]; 6 hr) was 121 ng/mL. For the same molecule, the “Mean concentration, Liver” value ([5]; 24 hr) was 57.6 ng/g, the “Mean concentration, Plasma” value ([5]; 24 hr) was 1.45 ng/mL and the “Mean concentration, Heart” value ([5]; 24 hr, BLQ = below 50 ng/g) was “BLQ^2”. It also gave an AUC(0-inf) ([5]; cynomolgus monkey, po) of 8920 ± 2190 ng·h/mL, a C24 h ([5]; cynomolgus monkey, po) of 81 ± 47 ng/mL and an F ([5]; cynomolgus monkey, po) of 107 ± 40%. The AUC(0-t) ([5]; male, CD-1, mouse, in vivo, iv) was 4060 ng·h/mL, the C24 h ([5]; male, CD-1, mouse, in vivo, iv) was 7.9 ± 11 ng/mL and the Vd ([5]; male, CD-1, mouse, in vivo, iv) was 4.4 L/kg. The clearance ([5]; male, CD-1, mouse, in vivo, iv) was 8 mL/min/kg, the half-life ([5]; male, CD-1, mouse, in vivo, iv) was 6.3 h and the AUC(0-t) ([5]; male, CD-1, mouse, in vivo, po) was 1410 ng·h/mL. It also gave a C24 h ([5]; male, CD-1, mouse, in vivo, po) of 1.5 ± 0.3 ng/mL, a Cmax ([5]; male, CD-1, mouse, in vivo, po) of 174 ng/mL and an F ([5]; male, CD-1, mouse, in vivo, po) of 34.7%. For the same molecule, the Tmax ([5]; male, CD-1, mouse, in vivo, po) was 2 h, the Kp ([5]; male, CD-1, mouse, in vivo, po, Mean concentration ratio Heart/Plasma, 2 hr) was 0.79 and the Kp ([5]; male, CD-1, mouse, in vivo, po, Mean concentration ratio Heart/Plasma, 6 hr) was 0.78. The Kp ([5]; male, CD-1, mouse, in vivo, po, Mean concentration ratio Liver/Plasma, 2 hr) was 27, the Kp ([5]; male, CD-1, mouse, in vivo, po, Mean concentration ratio Liver/Plasma, 6 hr) was 30 and the Kp ([5]; male, CD-1, mouse, in vivo, po, Mean concentration ratio Liver/Plasma, 24 hr) was 39. For the same molecule, the AUC(0-inf) ([5]; male, cynomolgus monkey, iv) was 9580 ± 1420 ng·h/mL, the C24 h ([5]; male, cynomolgus monkey, iv) was 66 ± 26 ng/mL and the Vd ([5]; male, cynomolgus monkey, iv) was 3.5 ± 0.5 L/kg. It also gave a clearance ([5]; male, cynomolgus monkey, iv) of 3.83 mL/min/kg, a half-life ([5]; male, cynomolgus monkey, iv) of 10.3 ± 1 h and a Cmax ([5]; male, cynomolgus monkey, po) of 1030 ± 270 ng/mL. For the same molecule, the Tmax ([5]; male, cynomolgus monkey, po) was 1 h, the half-life ([5]; male, cynomolgus monkey, po) was 7.6 ± 2 h and the “clearance relative to hepatic blood flow” value ([5]; mouse) was −9 % of hepatic blood flow.
